Reference: paper PMC12000511, “Molecular basis for the assembly of the Vps5-Vps17 SNX-BAR proteins with Retromer” (Nature Communications, 2025)
Where no end group is shown, it is not given here.

Legend:
[1] = biological target: ctRetromer (Thermochaetoides thermophila, UniProt G0RZB5+G0S709); assay: ITC, binding to ctRetromer; set-up: species or system Chaetomium thermophilum; details: ITC 25 °C, pH 7.5, 200 mM NaCl
Protocol: (§1) All the bacterial constructs were expressed in BL21(DE3) competent cells using standard isopropyl 1-thio-β-D-galactopyranoside induction or autoinduction method as described previously[39],[72],[73]. To obtain the Retromer trimer complex, the GST-tagged Vps29 and Vps35 co-expressed cell pellet were mixed with His-Vps26 and resuspended in lysis buffer containing 50 mM Tris-HCl pH 7.5, 200 mM NaCl, 5% glycerol, 50 μg/ml benzamidine and DNase I before passed through a Constant System TS-Series cell disruptor. […] For all constructs, the lysate was clarified by centrifugation and the supernatant was loaded onto either Talon® resin (Clonetech) or glutathione sepharose (GE healthcare) for initial purification. To obtain the correct stoichiometry ratio of the Retromer complex, both Talon® resin and glutathione sepharose (GE healthcare) were applied. […] The flow-through containing complex was further purified using size-exclusion chromatography (SEC) equilibrated with a buffer containing 50 mM Tris-HCl pH 7.5, 200 mM NaCl, 2 mM β-ME. […] To avoid the non-specific cleavage by the residual proteases such as thrombin, a tablet of protease inhibitor cocktail was added into the complex mixture. To remove the unbound fractions, the complex mixture was further purified using Superose 6 increase 10/300 GL column using the SEC buffer described above.
In brief, the clarified lysate was loaded onto glutathione sepharose (GE healthcare) and eluted using elution buffer containing 50 mM Tris-HCl pH 7.5, 200 mM NaCl, 5% glycerol, 20 mM glutathione reduced and 50 μg/ml benzamidine. The flow-through was further purified using SEC as the final purification step. To avoid the degradation, the constructs containing N-terminal disordered parts of Vps5 and Vps17 were used in fresh and experiments were finished within 3 days after purification.
(§2) All the proteins used for ITC experiments were prepared in buffer containing 50 mM Tris-HCl pH 7.5, 200 mM NaCl, 2 mM β-ME. […] In all cases, the ITC titration sequence consisted of an initial 0.4 μl (not used in data processing) followed by 12 serial injections of 3.22 μl each with 180 s intervals. The resulting titration data were integrated with Malvern software package by fitting and normalized data to a single-site binding model, yielding the thermodynamic parameters Kd, ∆H, ∆G and −T∆S for all binding experiments. The stoichiometry was refined initially, and if the value was close to 1, then N was set to exactly 1.0 for calculation. Data presented are the mean of triplicate titrations for each experiment.

[2] = biological target: T1, mVps29 (Mus musculus, UniProt Q9QZ88); assay: ITC, binding to mVps29; details: ITC 25 °C, pH 7.5; mean of triplicate titrations
T1 construct: GST (thrombin site) (N, cleaved yes); made in house; host or cells: E. coli BL21(DE3)
Protocol: as §1, §2

[3] = biological target: T1, mVps29; assay: Crystal structure of mVPS29–ctVps5_71–80 peptide complex; details: 1.7 Å, two molecules in asymmetric unit
Protocol: All crystals were grown by the hanging-drop vapor diffusion method at 20 °C. […] Best quality crystals were obtained by mixing 1 µL of protein with 1 µL of well solution containing 40 mM KH2PO4, 16% PEG8000 and 5% glycerol at room temperature. Crystals grew after 13 days were cryoprotected in reservoir solution with additional 16% glycerol. X-ray diffraction data were carried out at the Australian Synchrotron MX2 beamline at 100 K.
Data collected from the Australian Synchrotron were indexed and integrated by AutoXDS and scaled using Aimless (version 0.7.4)[75]. Both structures were solved by molecular replacement using Phaser (version 2.5.6)[76] with native mVps29 structure as the initial model template. Both structures contain two copies of mVps29 in asymmetric unit with the electron density of peptide clearly visible. The refinement was performed using Phenix (version 1.19.2) with inspection of resulting model in Coot (version 0.8.9.2) guided by Fo–Fc difference maps[77]. Molprobity was used to evaluate the quality geometry of the refined structure. Molecular figures were generated using PyMOL (version 2.5.5) and structural comparison was performed using DALI and Foldseek[79],[80]. Sequence conservation was mapped on the structure with ConSurf server.

Chain of ctRetromer (G0RZB5 entry or part of it): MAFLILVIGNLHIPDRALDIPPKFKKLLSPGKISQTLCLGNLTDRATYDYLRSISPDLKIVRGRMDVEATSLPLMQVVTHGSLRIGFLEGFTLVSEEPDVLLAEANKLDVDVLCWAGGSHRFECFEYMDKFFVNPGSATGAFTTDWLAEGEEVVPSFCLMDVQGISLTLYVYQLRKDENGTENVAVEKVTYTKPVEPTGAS
Chain of ctRetromer (G0S709 entry or part of it): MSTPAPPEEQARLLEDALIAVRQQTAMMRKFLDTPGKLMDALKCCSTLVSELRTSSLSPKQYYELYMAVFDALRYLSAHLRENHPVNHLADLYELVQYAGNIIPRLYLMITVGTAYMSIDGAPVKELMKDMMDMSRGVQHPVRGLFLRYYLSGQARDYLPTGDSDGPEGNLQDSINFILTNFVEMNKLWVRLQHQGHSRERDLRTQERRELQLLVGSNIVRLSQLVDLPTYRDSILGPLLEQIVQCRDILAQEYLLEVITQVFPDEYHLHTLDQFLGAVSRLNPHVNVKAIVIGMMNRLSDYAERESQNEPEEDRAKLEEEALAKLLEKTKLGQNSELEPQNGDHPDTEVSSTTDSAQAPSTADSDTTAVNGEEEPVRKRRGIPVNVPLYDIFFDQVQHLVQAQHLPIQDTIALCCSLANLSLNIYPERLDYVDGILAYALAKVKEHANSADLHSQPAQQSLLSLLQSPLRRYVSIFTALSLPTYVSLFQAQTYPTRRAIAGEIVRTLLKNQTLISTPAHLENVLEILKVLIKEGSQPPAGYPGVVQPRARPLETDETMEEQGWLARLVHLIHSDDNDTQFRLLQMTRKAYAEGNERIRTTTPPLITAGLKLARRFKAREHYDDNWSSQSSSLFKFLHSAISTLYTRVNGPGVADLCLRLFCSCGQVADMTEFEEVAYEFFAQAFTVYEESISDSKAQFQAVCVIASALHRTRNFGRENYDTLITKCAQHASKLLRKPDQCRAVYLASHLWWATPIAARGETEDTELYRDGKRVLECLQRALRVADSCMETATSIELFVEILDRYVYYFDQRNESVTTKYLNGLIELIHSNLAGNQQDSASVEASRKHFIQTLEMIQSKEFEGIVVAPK
Chain of ctRetromer (G0S0E6 entry or part of it, further chain): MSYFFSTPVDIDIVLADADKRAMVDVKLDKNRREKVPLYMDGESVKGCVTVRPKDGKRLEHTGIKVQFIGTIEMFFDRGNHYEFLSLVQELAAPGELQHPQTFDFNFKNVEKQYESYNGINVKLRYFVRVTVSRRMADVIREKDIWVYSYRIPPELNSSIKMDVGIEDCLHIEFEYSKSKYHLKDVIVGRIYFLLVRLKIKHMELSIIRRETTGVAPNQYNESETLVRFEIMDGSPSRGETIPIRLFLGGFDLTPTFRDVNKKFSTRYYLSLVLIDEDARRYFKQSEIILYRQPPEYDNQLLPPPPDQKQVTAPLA

For DDPLGPLGA [ctVps5_71–80 peptide], the “binding to ctRetromer” value [1] was “very weak binding”, the ΔG [2] was -5.80 ± 0.10 kcal/mol and the ΔH [2] was -8.00 ± 1.10 kcal/mol. For the same sequence, the “binding site on VPS29” value [3] was “binds to the conserved hydrophobic groove of VPS29”.
